Test results published in patent US20260356817A1, “AMINOPYRIMIDINE AND AMINOTRIAZINE DERIVATIVES AS MYC PROTEIN MODULATORS” (Sanford Burnham Prebys Medical Discovery Institute, priority 2022, published 2026).
Like-named read-outs stand apart in the source and are kept apart here.

Test system: Myc
Assay: Myc inhibition assay: Myc expression per cell by anti-Myc immunofluorescence, high-content imaging
Format: cell-based, human (patient-derived medulloblastoma xenograft cells)
Conditions: medulloblastoma PDX cells, 4 h
Description: To identify Myc inhibitors, cells isolated from patient-derived orthotopic xenografts (PDXs) from patients with Myc-driven medulloblastoma were used. Specifically, PDX cells were propagated by transplantation directly into the cerebellum of immunodeficient (NSG) mice and were never passaged in vitro in order to maintain properties of the tumor from which they were derived. Tumor tissues were isolated from tumor-bearing animals, dissociated into a single-cell suspension, resuspended in serum-free media, and immediately plated in 384 well plates. After overnight recovery, compounds were added to each well, and cells were incubated for 4 hours before being fixed and stained with anti-Myc antibodies and with DAPI to label nuclei. Cells were then analyzed using high-content imaging to determine the levels of Myc expression per cell and IC50 values of the compounds.

[1] = Table 1, read-out: IC50 (Myc inhibition)
[2] = Table 2, read-out: MYC Inhibition IC50

Row | Compound | IC50 [1] | IC50 [2]
1 | O=C(c1cccc(Nc2nccc(-c3ccc4[nH]cnc4c3)n2)c1)N1CCCC1 [Compound 17, (3-((4-(1H-benzo[d]imidazol-5-yl)pyrimidin-2-yl)amino)phenyl)(pyrrolidin-1-yl)methanone] | 10 to 100 µM | 10 to 100 µM
2 | CN(C)C(=O)c1cccc(Nc2nccc(-c3ccc4[nH]cnc4c3)n2)c1 [Compound 18, 3-((4-(1H-benzo[d]imidazol-5-yl)pyrimidin-2-yl)amino)-N,N-dimethylbenzamide] | 1 to 10 µM | 1 to 10 µM
3 | CC(C)n1cc(Nc2nccc(-c3ccc4[nH]cnc4c3)n2)cn1 [Compound 21, 4-(1H-benzo[d]imidazol-5-yl)-N-(1-isopropyl-1H-pyrazol-4-yl)pyrimidin-2-amine] | 0.2 to 1 µM | 0.2 to 1 µM
4 | Oc1cccc(Nc2nccc(-c3ccc4[nH]cnc4c3)n2)n1 [Compound 22, 6-((4-(1H-benzo[d]imidazol-5-yl)pyrimidin-2-yl)amino)pyridin-2-ol] | 10 to 100 µM | 10 to 100 µM
5 | O=S(=O)(Nc1ccccc1)c1cccc(Nc2nccc(-c3ccc4[nH]cnc4c3)n2)c1 [Compound 23, 3-((4-(1H-benzo[d]imidazol-5-yl)pyrimidin-2-yl)amino)-N-phenylbenzenesulfonamide] | 1 to 10 µM | 1 to 10 µM
6 | O=S(=O)(NC1CC1)c1cccc(Nc2nccc(-c3ccc4[nH]cnc4c3)n2)c1 [Compound 24, 3-((4-(1H-benzo[d]imidazol-5-yl)pyrimidin-2-yl)amino)-N-cyclopropylbenzenesulfonamide] | 0.2 to 1 µM | 0.2 to 1 µM
7 | O=C(O)c1cccc(Nc2nccc(-c3ccc4[nH]cnc4c3)n2)c1 [Compound 28, 3-((4-(1H-benzo[d]imidazol-5-yl)pyrimidin-2-yl)amino)benzoic acid] | 1 to 10 µM | 1 to 10 µM
8 | Oc1ccc(Nc2nccc(-c3ccc4[nH]cnc4c3)n2)cn1 [Compound 29, 5-((4-(1H-benzo[d]imidazol-5-yl)pyrimidin-2-yl)amino)pyridin-2-ol] | 1 to 10 µM | 1 to 10 µM
9 | FC(F)(F)c1cccc(Nc2nccc(-c3c[nH]c4cnccc34)n2)c1 [Compound 30, 4-(1H-pyrrolo[2,3-c]pyridin-3-yl)-N-(3-(trifluoromethyl)phenyl)pyrimidin-2-amine] | 1 to 10 µM | 1 to 10 µM

Now from value to compound:

Row | IC50 [1] | IC50 [2] | Compound
10 | 0.2 to 1 µM | 0.2 to 1 µM | CCN(CC)C(=O)c1cccc(Nc2nccc(-c3ccc4[nH]cnc4c3)n2)c1 [Compound 19, 3-((4-(1H-benzo[d]imidazol-5-yl)pyrimidin-2-yl)amino)-N,N-diethylbenzamide]
11 | 0.2 to 1 µM | 0.2 to 1 µM | c1cnc(-n2cc(Nc3nccc(-c4ccc5[nH]cnc5c4)n3)cn2)nc1 [Compound 20, 4-(1H-benzo[d]imidazol-5-yl)-N-(1-(pyrimidin-2-yl)-1H-pyrazol-4-yl)pyrimidin-2-amine]
12 | < 0.2 µM | < 0.2 µM | CNS(=O)(=O)c1cccc(Nc2nccc(-c3ccc4[nH]cnc4c3)n2)c1 [Compound 25, 3-((4-(1H-benzo[d]imidazol-5-yl)pyrimidin-2-yl)amino)-N-methylbenzenesulfonamide]
13 | < 0.2 µM | < 0.2 µM | CC(C)S(=O)(=O)c1cccc(Nc2nccc(-c3ccc4[nH]cnc4c3)n2)c1 [Compound 26, 4-(1H-benzo[d]imidazol-5-yl)-N-(3-(isopropylsulfonyl)phenyl)pyrimidin-2-amine]
14 | < 0.2 µM | < 0.2 µM | CS(=O)(=O)c1cccc(Nc2nccc(-c3ccc4[nH]cnc4c3)n2)c1 [Compound 27, 4-(1H-benzo[d]imidazol-5-yl)-N-(3-(methylsulfonyl)phenyl)pyrimidin-2-amine]
15 | < 0.2 µM | < 0.2 µM | Brc1cccc(Nc2nccc(-c3ccc4[nH]cnc4c3)n2)c1 [Compound 31, 4-(1H-benzo[d]imidazol-5-yl)-N-(3-bromophenyl)pyrimidin-2-amine]
